# Measured values as given in patent US20060069132A1, “Azolecarboxamide herbicides” (priority 2004, published 2006).
# Legend:
# ducksalad = assay: Test B flooded paddy test; type: in vivo, Heteranthera limosa; settings: 1000 g ai/ha, visual rating, scale 0 to 100 (0 no effect, 100 complete control), 13 to 15 days
# Outline: (§1)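 Paddy species grown to the 2-leaf stage under flooding; blackgrass sprayed postemergence at 2–18 cm (1- to 4-leaf stage). Plants kept in a greenhouse for 13 to 15 days, then visually rated against controls on 0 (no effect) to 100 (complete control).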
# morningglory [1] = assay: Test B pre-/postemergence herbicide test; type: in vivo, Ipomoea coccinea; settings: for Morningglory plant response rating: postemergence, scale 0 (no effect) to 100 (complete control)
# Outline: (§2)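 Test chemicals in a non-phytotoxic solvent mixture with surfactant were applied preemergence to seeded species and postemergence to plants 2-18 cm tall (1- to 4-leaf stage); rice and barnyardgrass were also tested in a flooded paddy at the 2-leaf stage. Visual rating versus controls after 13-15 days in greenhouse, scale 0 (no effect) to 100 (complete control).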
# rice [2] = assay: Test B pre-/postemergence herbicide test; type: in vivo, Oryza sativa; settings: 0 = no effect, 100 = complete control, preemergence
# Outline: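 Evaluation is visual, comparing treated with control plants on a scale where 0 means no effect and 100 means full control. Treatments were preemergence, or postemergence on seedlings 2–18 cm tall, and held 13–15 days in the greenhouse.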
# barnyardgrass [3] = assay: Test B pre-/postemergence herbicide test; type: in vivo, Echinochloa crus-galli; settings: for Barnyardgrass plant response rating: postemergence, scale 0 (no effect) to 100 (complete control)
# Outline: as §2
# redroot pigweed = assay: Test A pre-/postemergence herbicide test; type: in vivo, Amaranthus retroflexus
# Outline: (§3)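 Sandy loam soil given preemergence directed spray; plants at 2 to 10 cm, one- to two-leaf stage, sprayed to runoff postemergence, compounds in non-phytotoxic solvent with surfactant. Injury rated visually versus untreated controls after about ten greenhouse days, 0 (no effect) to 100 (complete control); dash means not tested.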
# wheat = assay: Test B postemergence herbicide test; type: in vivo, Triticum aestivum; design: key to Wheat plant response rating: 0 = no effect, 100 = complete control; settings: postemergence, visual rating, scale 0 (no effect) to 100 (complete control)
# Outline: (§4)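 Greenhouse test; postemergence application to plants at 1–4 leaves (2–18 cm); paddy species at 2 leaves; evaluated visually vs controls at 13–15 days; scale 0–100 (100 = complete control).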
# velvetleaf [4] = assay: Test A pre-/postemergence herbicide test; type: in vivo, Abutilon theophrasti
# Outline: as §3
# cocklebur = assay: Test B pre-/postemergence herbicide test; type: in vivo, Xanthium strumarium; settings: for Cocklebur plant response rating: postemergence, scale 0 (no effect) to 100 (complete control)
# Outline: as §2
# wild oat = assay: Test B postemergence herbicide test; type: in vivo, Avena fatua; settings: postemergence, visual rating, scale 0 (no effect) to 100 (complete control)
# Outline: as §4
# large crabgrass [5] = assay: Test A pre-/postemergence herbicide test; type: in vivo, Digitaria sanguinalis
# Outline: as §3
# blackgrass = assay: Test B postemergence herbicide test; type: in vivo, Alopecurus myosuroides; settings: postemergence, visual rating, scale 0 (no effect) to 100 (complete control)
# Outline: as §1
# Surinam grass = assay: Test B pre-/postemergence herbicide test; type: in vivo, Urochloa decumbens; settings: for Surinam Grass plant response rating: postemergence, scale 0 (no effect) to 100 (complete control)
# Outline: (§5)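 Flooded paddy rice and barnyardgrass were treated at the 2-leaf stage; upland plantings received compound either on sown seed or on 1- to 4-leaf seedlings. All were kept 13–15 days in a greenhouse and scored visually, 0–100, relative to untreated plants.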
# large crabgrass [6] = assay: Test B pre-/postemergence herbicide test; type: in vivo, Digitaria sanguinalis; settings: for Crabgrass, Large plant response rating: postemergence, scale 0 (no effect) to 100 (complete control)
# Outline: as §5
# rice [7] = assay: Test B flooded paddy test; type: in vivo, Oryza sativa; settings: 1000 g ai/ha, visual rating, scale 0 to 100 (0 no effect, 100 complete control), 13 to 15 days
# Outline: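 After treating 2-leaf paddy plants or 2–18 cm postemergence plants (1 to 4 leaves) with formulated chemical, researchers kept them in a greenhouse for 13–15 days. Effects were judged visually versus controls: 0 indicates none, 100 total control.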
# velvetleaf [8] = assay: Test B pre-/postemergence herbicide test; type: in vivo, Abutilon theophrasti; settings: for Velvetleaf plant response rating: postemergence, scale 0 (no effect) to 100 (complete control)
# Outline: as §5
# morningglory [9] = assay: Test A pre-/postemergence herbicide test; type: in vivo, Ipomoea spp.
# Outline: as §3
# barnyardgrass [10] = assay: Test A pre-/postemergence herbicide test; type: in vivo, Echinochloa crus-galli
# Outline: as §3
# lambsquarters = assay: Test B pre-/postemergence herbicide test; type: in vivo, Chenopodium album; settings: for Lambsquarters plant response rating: postemergence, scale 0 (no effect) to 100 (complete control)
# Outline: as §5
# corn = assay: Test B pre-/postemergence herbicide test; type: in vivo, Zea mays; settings: for Corn plant response rating: postemergence, scale 0 (no effect) to 100 (complete control)
# Outline: as §5
# barnyardgrass [11] = assay: Test B flooded paddy test; type: in vivo, Echinochloa crus-galli; settings: 1000 g ai/ha, visual rating, scale 0 to 100 (0 no effect, 100 complete control), 13 to 15 days
# Outline: as §1
# giant foxtail [12] = assay: Test A pre-/postemergence herbicide test; type: in vivo, Setaria faberi
# Outline: as §3
# pigweed = assay: Test B pre-/postemergence herbicide test; type: in vivo, Amaranthus retroflexus; settings: for Pigweed plant response rating: postemergence, scale 0 (no effect) to 100 (complete control)
# Outline: as §5
# [13] = test system: small flower umbrella sedge; assay: Test B flooded paddy test; type: in vivo, Cyperus difformis; settings: 1000 g ai/ha, visual rating, scale 0 to 100 (0 no effect, 100 complete control), 13 to 15 days
# Outline: as §1
# giant foxtail [14] = assay: Test B pre-/postemergence herbicide test; type: in vivo, Setaria faberi; settings: for Foxtail, Giant plant response rating: postemergence, scale 0 (no effect) to 100 (complete control)
# Outline: as §5
# [15] = 125 g ai/ha, 0 = no effect, 100 = complete control, preemergence
# [16] = 500 g ai/ha, visual rating, 0 = no effect, 100 = complete control, preemergence
# [17] = Postemergence, 500 g ai/ha, 0 to 100 scale, 0 no effect, 100 complete control
# [18] = Postemergence, 2000 g ai/ha, 0 to 100 scale, 0 no effect, 100 complete control
# [19] = Preemergence, 2000 g ai/ha, visual rating, 0 to 100 scale (0 no effect, 100 complete control)
# [20] = preemergence, 500 g ai/ha, visual injury, 0 to 100 scale (0 no effect, 100 complete control)
compound,measurement,setting,value
CCc1nc(C(C)(C)C)sc1C(=O)Nc1cccc(C(=O)N(CC)CC)n1 [Compound 214],Ducksalad plant response rating,ducksalad,30
same,Morningglory plant response rating (0 to 100 scale),morningglory [1]; [15],0
same,"Plant response rating, Morningglory",morningglory [1]; [16],0
same,Morningglory plant response rating,"morningglory [1]; 125 g ai/ha, visual rating",0
same,Morningglory plant response rating,"morningglory [1]; 500 g ai/ha, visual rating",0
same,Rice plant response rating (0 to 100 scale),rice [2]; 125 g ai/ha,0
same,"Plant response rating, Rice","rice [2]; 500 g ai/ha, visual rating",0
same,Barnyardgrass plant response rating (0 to 100 scale),barnyardgrass [3]; [15],0
same,"Plant response rating, Barnyardgrass",barnyardgrass [3]; [16],20
same,Barnyardgrass plant response rating,"barnyardgrass [3]; 125 g ai/ha, visual rating",0
same,Barnyardgrass plant response rating,"barnyardgrass [3]; 500 g ai/ha, visual rating",0
same,Pigweed plant response rating,redroot pigweed; [17],20
same,"Plant response rating, Pigweed",redroot pigweed; [18],50
same,Pigweed plant response rating,redroot pigweed; [19],95
same,Pigweed plant response rating,redroot pigweed; [20],20
same,Wheat plant response rating,wheat; 125 g ai/ha,0
same,Wheat plant response rating,wheat; 500 g ai/ha,0
same,Velvetleaf plant response rating,velvetleaf [4]; [17],15
same,"Plant response rating, Velvetleaf",velvetleaf [4]; [18],20
same,Velvetleaf plant response rating,velvetleaf [4]; [19],20
same,Velvetleaf plant response rating,velvetleaf [4]; [20],5
same,Cocklebur plant response rating (0 to 100 scale),cocklebur; [15],0
same,"Plant response rating, Cocklebur",cocklebur; [16],0
same,Cocklebur plant response rating,"cocklebur; 125 g ai/ha, visual rating",0
same,Cocklebur plant response rating,"cocklebur; 500 g ai/ha, visual rating",0
same,"Oat, Wild plant response rating",wild oat; 125 g ai/ha,0
same,"Oat, Wild plant response rating",wild oat; 500 g ai/ha,0
same,"Crabgrass, Large plant response rating",large crabgrass [5]; [17],5
same,"Plant response rating, Crabgrass, Large",large crabgrass [5]; [18],10
same,"Crabgrass, Large plant response rating",large crabgrass [5]; [19],65
same,"Crabgrass, Large plant response rating",large crabgrass [5]; [20],55
same,Blackgrass plant response rating,blackgrass; 125 g ai/ha,0
same,Blackgrass plant response rating,blackgrass; 500 g ai/ha,0
same,Surinam Grass plant response rating (0 to 100 scale),Surinam grass; [15],0
same,"Plant response rating, Surinam Grass",Surinam grass; [16],30
same,Surinam Grass plant response rating,"Surinam grass; 125 g ai/ha, visual rating",0
same,Surinam Grass plant response rating,"Surinam grass; 500 g ai/ha, visual rating",10
same,"Crabgrass, Large plant response rating (0 to 100 scale)",large crabgrass [6]; [15],0
same,"Plant response rating, Crabgrass, Large",large crabgrass [6]; [16],70
same,"Crabgrass, Large plant response rating","large crabgrass [6]; 125 g ai/ha, visual rating",0
same,"Crabgrass, Large plant response rating","large crabgrass [6]; 500 g ai/ha, visual rating",0
same,Rice plant response rating,rice [7],0
same,Velvetleaf plant response rating (0 to 100 scale),velvetleaf [8]; [15],0
same,"Plant response rating, Velvetleaf",velvetleaf [8]; [16],0
same,Velvetleaf plant response rating,"velvetleaf [8]; 125 g ai/ha, visual rating",0
same,Velvetleaf plant response rating,"velvetleaf [8]; 500 g ai/ha, visual rating",10
same,Morningglory plant response rating,morningglory [9]; [17],0
same,"Plant response rating, Morningglory",morningglory [9]; [18],10
same,Morningglory plant response rating,morningglory [9]; [19],30
same,Morningglory plant response rating,morningglory [9]; [20],5
same,Barnyardgrass plant response rating,barnyardgrass [10]; [17],0
same,"Plant response rating, Barnyardgrass",barnyardgrass [10]; [18],15
same,Barnyardgrass plant response rating,barnyardgrass [10]; [19],30
same,Barnyardgrass plant response rating,barnyardgrass [10]; [20],0
same,Lambsquarters plant response rating (0 to 100 scale),lambsquarters; [15],0
same,"Plant response rating, Lambsquarters",lambsquarters; [16],80
same,Lambsquarters plant response rating,"lambsquarters; 125 g ai/ha, visual rating",0
same,Lambsquarters plant response rating,"lambsquarters; 500 g ai/ha, visual rating",0
same,Corn plant response rating (0 to 100 scale),corn; [15],0
same,"Plant response rating, Corn",corn; [16],0
same,Corn plant response rating,"corn; 125 g ai/ha, visual rating",0
same,Corn plant response rating,"corn; 500 g ai/ha, visual rating",20
same,Barnyardgrass plant response rating,barnyardgrass [11],0
same,"Foxtail, Giant plant response rating",giant foxtail [12]; [17],15
same,"Plant response rating, Foxtail, Giant",giant foxtail [12]; [18],40
same,"Foxtail, Giant plant response rating",giant foxtail [12]; [19],55
same,"Foxtail, Giant plant response rating",giant foxtail [12]; [20],60
same,Pigweed plant response rating (0 to 100 scale),pigweed; [15],0
same,"Plant response rating, Pigweed",pigweed; [16],100
same,Pigweed plant response rating,"pigweed; 125 g ai/ha, visual rating",0
same,Pigweed plant response rating,"pigweed; 500 g ai/ha, visual rating",0
same,"Sedge, Umbrella plant response rating",[13],50
same,"Foxtail, Giant plant response rating (0 to 100 scale)",giant foxtail [14]; [15],0
same,"Plant response rating, Foxtail, Giant",giant foxtail [14]; [16],90
same,"Foxtail, Giant plant response rating","giant foxtail [14]; 125 g ai/ha, visual rating",0
same,"Foxtail, Giant plant response rating","giant foxtail [14]; 500 g ai/ha, visual rating",20
